The values that follow are results of earlier work, collected in patent US20190048020A1, “DEUTERIUM-MODIFIED CFTR MODULATORS” (VERTEX PHARMACEUTICALS (EUROPE) LIMITED, priority 2016, published 2019).

The target of the data set is T1, CFTR G5551D mutation (Homo sapiens, UniProt P13569, G551D).
T1 construct: phase II study in patients with the CFTR G5551D mutation; host or cells: patients (in vivo, sweat chloride read-out)
The note with it: phase II study, patients with the CFTR G5551D mutation.

T1 sequence (P13569 whole entry G551D): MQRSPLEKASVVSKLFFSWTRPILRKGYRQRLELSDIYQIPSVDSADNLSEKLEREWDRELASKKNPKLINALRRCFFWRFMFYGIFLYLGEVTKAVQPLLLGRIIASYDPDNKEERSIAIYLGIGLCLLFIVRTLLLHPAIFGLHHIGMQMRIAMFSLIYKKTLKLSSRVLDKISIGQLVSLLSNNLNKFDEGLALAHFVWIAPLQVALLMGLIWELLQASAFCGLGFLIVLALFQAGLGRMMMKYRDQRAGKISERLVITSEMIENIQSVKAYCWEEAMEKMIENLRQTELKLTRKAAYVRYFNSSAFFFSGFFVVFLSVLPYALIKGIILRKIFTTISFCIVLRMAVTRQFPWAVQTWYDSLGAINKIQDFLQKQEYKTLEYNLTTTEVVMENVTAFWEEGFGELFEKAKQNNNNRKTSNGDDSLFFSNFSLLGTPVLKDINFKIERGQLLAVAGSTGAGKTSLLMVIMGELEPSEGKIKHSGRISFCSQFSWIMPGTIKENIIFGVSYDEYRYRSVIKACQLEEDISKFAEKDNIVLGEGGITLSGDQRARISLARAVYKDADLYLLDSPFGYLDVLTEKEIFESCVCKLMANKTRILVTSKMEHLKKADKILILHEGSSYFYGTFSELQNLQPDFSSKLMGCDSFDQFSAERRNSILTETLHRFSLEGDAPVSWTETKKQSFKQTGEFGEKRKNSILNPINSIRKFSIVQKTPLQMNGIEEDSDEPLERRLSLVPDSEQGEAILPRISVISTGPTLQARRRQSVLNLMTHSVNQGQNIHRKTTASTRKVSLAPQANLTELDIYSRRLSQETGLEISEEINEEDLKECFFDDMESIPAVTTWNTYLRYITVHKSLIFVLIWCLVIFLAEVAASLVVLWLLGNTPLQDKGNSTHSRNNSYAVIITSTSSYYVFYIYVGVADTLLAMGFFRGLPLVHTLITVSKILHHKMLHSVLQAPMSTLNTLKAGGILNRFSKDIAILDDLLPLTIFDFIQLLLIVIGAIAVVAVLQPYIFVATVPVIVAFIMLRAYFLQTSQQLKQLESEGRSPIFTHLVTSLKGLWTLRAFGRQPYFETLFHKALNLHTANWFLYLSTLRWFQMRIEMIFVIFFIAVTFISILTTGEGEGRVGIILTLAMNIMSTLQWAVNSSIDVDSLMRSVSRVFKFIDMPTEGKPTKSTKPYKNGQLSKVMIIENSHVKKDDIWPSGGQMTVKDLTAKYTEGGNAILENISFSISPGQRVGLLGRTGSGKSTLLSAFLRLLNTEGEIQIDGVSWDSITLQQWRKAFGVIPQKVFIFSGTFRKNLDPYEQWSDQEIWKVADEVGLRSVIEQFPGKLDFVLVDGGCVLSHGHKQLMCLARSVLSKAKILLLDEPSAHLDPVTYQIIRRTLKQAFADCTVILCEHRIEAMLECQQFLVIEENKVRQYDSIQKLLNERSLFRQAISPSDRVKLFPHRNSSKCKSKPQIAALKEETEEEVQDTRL

With `CC1(C)Cc2c(sc(NC(=O)c3ccn[nH]3)c2C(N)=O)C(C)(C)O1` [GLPG1837], the sweat chloride concentration entry was “statistically significant dose-dependent decrease”.
